Results: article PMC5512571 (Cancer cell, 2017)

Tests used:
Assay in all cases: in vitro kinase panel profiling
Assay type in all cases: biochemical
[1] = target: T1, NUAK1 (Homo sapiens, UniProt O60285)
T1 sequence (O60285 1-661): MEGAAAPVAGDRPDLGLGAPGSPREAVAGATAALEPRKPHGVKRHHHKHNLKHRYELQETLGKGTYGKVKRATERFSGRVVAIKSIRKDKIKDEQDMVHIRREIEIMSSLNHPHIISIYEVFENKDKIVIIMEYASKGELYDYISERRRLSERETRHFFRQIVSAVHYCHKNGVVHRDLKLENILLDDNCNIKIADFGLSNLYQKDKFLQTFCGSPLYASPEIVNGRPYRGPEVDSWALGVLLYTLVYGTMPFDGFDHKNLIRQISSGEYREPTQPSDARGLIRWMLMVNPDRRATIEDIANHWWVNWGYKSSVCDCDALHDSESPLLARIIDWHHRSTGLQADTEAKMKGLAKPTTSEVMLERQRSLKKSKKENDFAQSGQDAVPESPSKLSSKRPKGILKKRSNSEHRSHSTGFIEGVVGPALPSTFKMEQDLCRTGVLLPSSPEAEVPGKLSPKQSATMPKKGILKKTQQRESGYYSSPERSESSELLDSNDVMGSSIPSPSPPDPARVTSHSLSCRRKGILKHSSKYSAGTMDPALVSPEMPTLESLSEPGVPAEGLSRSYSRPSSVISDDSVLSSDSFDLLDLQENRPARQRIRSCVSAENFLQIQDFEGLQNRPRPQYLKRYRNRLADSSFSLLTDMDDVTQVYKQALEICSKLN

[2] = target: T2, TNK1 (Homo sapiens, UniProt Q13470)
T2 sequence (Q13470 1-666): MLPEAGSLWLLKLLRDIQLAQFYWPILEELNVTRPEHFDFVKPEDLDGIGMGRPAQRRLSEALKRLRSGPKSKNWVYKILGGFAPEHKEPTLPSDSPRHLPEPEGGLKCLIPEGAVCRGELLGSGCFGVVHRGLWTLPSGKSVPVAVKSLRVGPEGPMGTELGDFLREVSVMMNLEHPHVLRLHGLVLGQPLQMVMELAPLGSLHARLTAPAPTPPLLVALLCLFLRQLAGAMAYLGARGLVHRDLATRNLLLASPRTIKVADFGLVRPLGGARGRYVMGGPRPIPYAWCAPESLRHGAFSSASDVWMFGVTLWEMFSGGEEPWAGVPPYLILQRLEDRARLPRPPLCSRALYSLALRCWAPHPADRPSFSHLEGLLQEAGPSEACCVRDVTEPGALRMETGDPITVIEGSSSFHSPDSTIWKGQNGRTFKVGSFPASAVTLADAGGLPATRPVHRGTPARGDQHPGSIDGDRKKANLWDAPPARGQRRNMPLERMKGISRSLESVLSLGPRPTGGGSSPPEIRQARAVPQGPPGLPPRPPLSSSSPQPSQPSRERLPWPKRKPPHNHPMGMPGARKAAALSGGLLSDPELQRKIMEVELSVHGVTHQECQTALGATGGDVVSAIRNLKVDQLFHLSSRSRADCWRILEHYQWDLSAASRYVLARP

[3] = target: JAK2 (Homo sapiens, UniProt O60674)
[4] = target: FLT3 (Homo sapiens, UniProt P36888)
[5] = target: LRRK2 (Homo sapiens, UniProt Q5S007)
[6] = target: T3, NUAK2 (Homo sapiens, UniProt Q9H093)
T3 sequence (Q9H093 1-628): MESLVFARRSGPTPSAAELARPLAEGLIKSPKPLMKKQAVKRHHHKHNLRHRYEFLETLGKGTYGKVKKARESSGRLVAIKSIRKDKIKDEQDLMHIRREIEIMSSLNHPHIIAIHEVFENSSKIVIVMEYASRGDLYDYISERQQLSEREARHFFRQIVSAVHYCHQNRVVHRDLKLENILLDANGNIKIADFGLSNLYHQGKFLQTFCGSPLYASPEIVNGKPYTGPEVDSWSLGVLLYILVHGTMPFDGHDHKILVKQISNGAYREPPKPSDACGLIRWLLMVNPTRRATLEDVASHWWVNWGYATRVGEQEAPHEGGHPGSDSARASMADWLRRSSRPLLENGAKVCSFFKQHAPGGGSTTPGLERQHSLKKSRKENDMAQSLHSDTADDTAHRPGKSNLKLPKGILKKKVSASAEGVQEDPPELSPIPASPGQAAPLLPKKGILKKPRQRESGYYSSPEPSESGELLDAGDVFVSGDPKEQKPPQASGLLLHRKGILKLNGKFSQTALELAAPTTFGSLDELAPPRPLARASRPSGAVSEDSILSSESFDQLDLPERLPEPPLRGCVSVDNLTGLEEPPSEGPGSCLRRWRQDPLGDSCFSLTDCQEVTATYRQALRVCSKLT

[7] = target: TYK2 (Homo sapiens, UniProt P29597)
[8] = target: JAK1 (Homo sapiens, UniProt P23458)
[9] = target: T4, JAK3 (Homo sapiens, UniProt P52333)
T4 sequence (P52333 1-1124): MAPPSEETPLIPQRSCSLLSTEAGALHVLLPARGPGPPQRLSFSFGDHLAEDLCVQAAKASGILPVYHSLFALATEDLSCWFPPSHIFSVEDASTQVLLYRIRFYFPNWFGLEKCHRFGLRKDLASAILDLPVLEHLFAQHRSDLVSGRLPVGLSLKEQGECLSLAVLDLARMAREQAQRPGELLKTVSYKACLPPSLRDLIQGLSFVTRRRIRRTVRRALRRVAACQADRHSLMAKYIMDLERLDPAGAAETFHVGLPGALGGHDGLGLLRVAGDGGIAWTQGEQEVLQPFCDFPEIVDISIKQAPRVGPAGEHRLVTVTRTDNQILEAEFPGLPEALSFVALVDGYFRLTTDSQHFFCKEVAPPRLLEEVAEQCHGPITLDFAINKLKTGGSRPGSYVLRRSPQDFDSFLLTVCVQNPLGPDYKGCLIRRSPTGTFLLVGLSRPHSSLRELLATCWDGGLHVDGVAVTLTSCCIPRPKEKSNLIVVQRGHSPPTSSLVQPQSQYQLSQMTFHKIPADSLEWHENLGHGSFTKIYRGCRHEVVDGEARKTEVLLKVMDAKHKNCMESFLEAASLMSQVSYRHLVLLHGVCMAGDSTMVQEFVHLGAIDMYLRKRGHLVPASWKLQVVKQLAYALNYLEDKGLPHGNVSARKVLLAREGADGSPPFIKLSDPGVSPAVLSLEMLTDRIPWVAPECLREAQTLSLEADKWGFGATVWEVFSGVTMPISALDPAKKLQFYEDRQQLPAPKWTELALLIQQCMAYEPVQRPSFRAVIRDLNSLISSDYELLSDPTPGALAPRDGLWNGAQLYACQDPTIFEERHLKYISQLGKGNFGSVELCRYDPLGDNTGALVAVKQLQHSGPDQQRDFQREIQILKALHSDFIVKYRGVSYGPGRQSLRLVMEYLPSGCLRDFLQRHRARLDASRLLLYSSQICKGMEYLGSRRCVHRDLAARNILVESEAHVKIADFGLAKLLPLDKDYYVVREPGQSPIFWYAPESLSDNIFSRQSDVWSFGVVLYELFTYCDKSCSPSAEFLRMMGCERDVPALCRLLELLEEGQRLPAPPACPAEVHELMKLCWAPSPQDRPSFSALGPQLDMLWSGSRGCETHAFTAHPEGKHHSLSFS

Sequence of JAK1 (P23458 whole entry): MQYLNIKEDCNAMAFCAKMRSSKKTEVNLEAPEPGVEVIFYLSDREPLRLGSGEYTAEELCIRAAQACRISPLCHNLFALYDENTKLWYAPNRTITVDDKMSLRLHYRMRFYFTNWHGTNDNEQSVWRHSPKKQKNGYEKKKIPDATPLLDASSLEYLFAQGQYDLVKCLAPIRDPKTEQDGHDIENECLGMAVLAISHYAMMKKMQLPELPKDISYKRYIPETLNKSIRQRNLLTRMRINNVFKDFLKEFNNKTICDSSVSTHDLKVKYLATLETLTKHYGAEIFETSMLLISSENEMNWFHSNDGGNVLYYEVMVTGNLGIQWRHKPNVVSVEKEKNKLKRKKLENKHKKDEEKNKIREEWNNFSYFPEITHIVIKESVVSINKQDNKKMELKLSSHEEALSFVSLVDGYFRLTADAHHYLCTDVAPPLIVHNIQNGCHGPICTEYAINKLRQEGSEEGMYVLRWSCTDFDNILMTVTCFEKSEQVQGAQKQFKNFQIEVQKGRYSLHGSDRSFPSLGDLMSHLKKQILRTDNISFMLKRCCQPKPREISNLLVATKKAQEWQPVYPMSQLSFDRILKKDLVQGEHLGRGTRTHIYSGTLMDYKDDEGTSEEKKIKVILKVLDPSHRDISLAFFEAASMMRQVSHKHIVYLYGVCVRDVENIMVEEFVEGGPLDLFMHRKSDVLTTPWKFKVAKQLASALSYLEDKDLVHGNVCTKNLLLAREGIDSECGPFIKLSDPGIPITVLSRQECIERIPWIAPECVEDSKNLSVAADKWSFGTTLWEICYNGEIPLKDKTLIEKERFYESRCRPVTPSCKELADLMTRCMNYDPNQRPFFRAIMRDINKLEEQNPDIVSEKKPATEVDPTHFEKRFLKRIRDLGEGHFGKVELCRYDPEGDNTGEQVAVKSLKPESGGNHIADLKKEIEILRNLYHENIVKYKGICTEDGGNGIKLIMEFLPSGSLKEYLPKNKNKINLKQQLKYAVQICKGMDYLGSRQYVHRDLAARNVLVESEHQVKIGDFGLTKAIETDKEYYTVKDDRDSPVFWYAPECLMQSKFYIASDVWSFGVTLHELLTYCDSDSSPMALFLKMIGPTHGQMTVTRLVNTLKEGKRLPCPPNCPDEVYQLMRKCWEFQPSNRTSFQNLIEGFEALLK
Sequence of FLT3 (P36888 27-993): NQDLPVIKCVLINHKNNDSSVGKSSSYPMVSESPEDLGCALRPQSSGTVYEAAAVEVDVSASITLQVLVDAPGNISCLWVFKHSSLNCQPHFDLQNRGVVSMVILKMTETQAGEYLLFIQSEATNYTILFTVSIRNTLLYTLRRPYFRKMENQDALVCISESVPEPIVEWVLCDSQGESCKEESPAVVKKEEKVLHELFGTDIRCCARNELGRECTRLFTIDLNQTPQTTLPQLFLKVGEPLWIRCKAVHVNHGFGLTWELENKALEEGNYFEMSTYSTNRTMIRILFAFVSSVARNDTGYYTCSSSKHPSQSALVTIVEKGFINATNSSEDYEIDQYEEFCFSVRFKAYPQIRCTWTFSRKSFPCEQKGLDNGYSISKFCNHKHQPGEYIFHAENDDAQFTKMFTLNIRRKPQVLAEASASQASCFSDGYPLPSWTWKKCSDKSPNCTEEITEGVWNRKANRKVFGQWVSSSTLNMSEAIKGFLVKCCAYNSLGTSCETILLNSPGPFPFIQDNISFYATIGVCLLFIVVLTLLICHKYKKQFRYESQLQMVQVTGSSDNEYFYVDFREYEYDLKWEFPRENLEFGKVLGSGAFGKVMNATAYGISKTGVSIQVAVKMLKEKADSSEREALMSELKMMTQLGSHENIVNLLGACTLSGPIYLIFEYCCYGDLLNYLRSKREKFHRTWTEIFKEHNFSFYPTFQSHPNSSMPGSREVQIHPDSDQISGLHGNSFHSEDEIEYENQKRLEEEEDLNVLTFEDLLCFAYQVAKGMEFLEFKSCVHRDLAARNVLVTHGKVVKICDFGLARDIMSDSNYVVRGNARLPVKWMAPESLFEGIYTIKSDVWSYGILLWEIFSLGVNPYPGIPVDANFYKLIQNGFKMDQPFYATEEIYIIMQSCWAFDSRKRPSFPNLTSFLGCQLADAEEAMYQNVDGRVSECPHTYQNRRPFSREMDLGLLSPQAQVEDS
Sequence of TYK2 (P29597 whole entry): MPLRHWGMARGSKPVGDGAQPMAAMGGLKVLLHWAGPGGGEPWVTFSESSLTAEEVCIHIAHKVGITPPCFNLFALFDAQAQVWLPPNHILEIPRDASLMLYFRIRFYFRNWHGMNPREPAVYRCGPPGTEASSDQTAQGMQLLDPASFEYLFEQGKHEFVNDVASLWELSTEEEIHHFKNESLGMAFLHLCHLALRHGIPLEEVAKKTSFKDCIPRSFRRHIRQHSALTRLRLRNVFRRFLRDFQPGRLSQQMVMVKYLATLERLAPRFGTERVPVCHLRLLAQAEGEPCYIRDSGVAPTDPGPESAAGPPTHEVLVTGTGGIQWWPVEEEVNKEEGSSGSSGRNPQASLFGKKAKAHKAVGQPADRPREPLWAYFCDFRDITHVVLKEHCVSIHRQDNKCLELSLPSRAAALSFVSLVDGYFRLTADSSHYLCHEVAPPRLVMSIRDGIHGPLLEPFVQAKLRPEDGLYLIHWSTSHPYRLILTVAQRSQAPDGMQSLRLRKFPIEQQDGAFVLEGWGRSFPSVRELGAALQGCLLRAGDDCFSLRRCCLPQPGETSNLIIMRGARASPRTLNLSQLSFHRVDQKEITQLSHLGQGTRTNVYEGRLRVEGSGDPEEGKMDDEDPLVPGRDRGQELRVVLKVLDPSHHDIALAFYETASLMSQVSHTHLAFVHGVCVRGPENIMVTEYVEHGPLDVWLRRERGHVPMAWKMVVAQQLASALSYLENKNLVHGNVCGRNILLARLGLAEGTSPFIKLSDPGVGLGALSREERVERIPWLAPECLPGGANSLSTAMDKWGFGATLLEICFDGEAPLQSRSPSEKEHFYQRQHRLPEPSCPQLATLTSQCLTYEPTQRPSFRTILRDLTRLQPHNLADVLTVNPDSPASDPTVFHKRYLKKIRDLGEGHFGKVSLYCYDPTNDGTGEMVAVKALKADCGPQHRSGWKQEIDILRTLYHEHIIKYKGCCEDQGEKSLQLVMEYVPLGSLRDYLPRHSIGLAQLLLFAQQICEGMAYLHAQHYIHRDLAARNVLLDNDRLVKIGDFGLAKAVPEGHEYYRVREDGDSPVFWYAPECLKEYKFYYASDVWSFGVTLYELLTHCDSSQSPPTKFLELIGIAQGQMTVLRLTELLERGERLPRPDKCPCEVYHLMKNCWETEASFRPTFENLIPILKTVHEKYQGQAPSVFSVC
Sequence of JAK2 (O60674 whole entry): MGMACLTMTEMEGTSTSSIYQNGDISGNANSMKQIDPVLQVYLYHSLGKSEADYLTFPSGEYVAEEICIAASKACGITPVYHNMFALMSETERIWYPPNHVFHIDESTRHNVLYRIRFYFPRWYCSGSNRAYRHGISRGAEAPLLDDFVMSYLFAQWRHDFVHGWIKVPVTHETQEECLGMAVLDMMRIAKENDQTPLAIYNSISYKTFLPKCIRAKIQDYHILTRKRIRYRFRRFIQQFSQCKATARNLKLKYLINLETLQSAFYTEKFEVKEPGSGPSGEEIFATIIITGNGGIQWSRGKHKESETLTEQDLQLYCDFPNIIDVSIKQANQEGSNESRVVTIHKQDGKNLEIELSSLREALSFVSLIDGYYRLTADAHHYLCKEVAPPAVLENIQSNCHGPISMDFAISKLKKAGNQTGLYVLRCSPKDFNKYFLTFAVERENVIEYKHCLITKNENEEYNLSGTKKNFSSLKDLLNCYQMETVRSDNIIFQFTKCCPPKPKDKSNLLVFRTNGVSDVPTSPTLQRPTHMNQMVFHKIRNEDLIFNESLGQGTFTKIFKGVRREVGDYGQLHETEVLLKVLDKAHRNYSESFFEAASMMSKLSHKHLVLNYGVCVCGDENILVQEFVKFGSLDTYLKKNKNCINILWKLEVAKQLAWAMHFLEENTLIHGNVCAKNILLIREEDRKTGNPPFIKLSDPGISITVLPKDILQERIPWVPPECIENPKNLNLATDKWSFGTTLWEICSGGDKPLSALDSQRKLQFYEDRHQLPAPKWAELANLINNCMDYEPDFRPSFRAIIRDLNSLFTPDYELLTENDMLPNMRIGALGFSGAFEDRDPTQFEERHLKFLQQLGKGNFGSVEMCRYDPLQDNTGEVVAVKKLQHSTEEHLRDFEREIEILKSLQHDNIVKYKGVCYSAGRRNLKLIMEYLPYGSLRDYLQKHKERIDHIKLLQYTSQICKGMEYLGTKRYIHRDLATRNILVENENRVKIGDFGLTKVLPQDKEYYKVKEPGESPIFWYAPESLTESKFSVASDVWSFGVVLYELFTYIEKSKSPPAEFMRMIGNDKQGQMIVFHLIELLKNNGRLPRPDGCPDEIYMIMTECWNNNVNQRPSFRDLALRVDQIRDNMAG

% inhibition at 250 nM [1]: > 90
% inhibition at 250 nM [2]: > 90
% inhibition at 250 nM [3]: > 90
% inhibition at 250 nM [4]: > 90
% inhibition at 250 nM [5]: > 90
% inhibition at 250 nM [6]: > 90
% inhibition at 250 nM [7]: > 90
% inhibition at 250 nM [8]: > 90
% inhibition at 250 nM [9]: > 90
SMILES: CN1CCN(c2ccc(Nc3ncc(Cl)c(NC[C@H]4CCCO4)n3)cc2)CC1 [(R)-9bMS]
